[L-RNA-N] = L-ribonucleotide (mirror-image RNA) (N: the base); {FAM} = fluorescein label
Experiments:
Assay type in all cases: biochemical
[1] = test system: L-target; assay: Cleavage of L-target by L-ribozyme in human serum; settings: FIG. 12; conditions of human serum
[2] = test system: D-target (Seq-ID 1 RNA with D-nucleotides); assay: Cleavage assay: D-target with L-ribozyme
Procedure: (§1) The activities of L-ribozymes and D-ribozymes were measured in various conditions. The basic conditions were as follows. […] in 50 mM Tris-HCl buffer, pH 7.5, at 20° C. for 2 hours (ribozymes/target ratio therefore 10:1, 1:1 and 1:10). Before the reaction, target RNA and ribozyme were denatured for 2 minutes at 70° C. and cooled slowly (1° C./min) in the heating unit to 25° C. The influence of the Mg^2+ ions at concentration from 0.1 to 25 mM was investigated. Cleavage products were separated on 20% polyacrylamide gel electrophoresis in the presence of 8 M urea in 0.09 M Tris-borate buffer, pH 8.3. The fluorescence was analyzed on Phosphoimager Fuji Film FLA 5100. The data were obtained with the program Fuji Analysis Program. Diagrams were prepared with Excel.
(§2) The following were prepared as target sequences by way of contract synthesis by the company ChemGenes Corporation, Wilmington, USA: • Seq-ID 1: 5′-FAM-ACAGUCGGUCGCC-3′ (RNA, both with D-nucleotides and with L-nucleotides) and • Seq-ID 2: 5′-FAM-ACAGTCGGTCGCC-3′ (DNA, both with D-nucleotides and with L-nucleotides).
(§3) All synthesis products were labeled with fluorescein at the 5′-end.
C is the control (L-target+L-ribozyme), tracks 1 to 5 are the various MgCl2 concentrations given in the diagram (0-25 mM) for target without ribozyme, tracks 6 to 9 0.2 μM target with 2 μM ribozyme.

[3] = test system: L-target (Seq-ID 1 RNA with L-nucleotides); assay: Cleavage assay: L-target with L-ribozyme
Procedure: as §1, §2, §3

[4] = test system: D-target (Seq-ID 1 RNA with D-nucleotides); assay: Cleavage assay: D-target with D-ribozyme; settings: FIG. 4B; MgCl2 1-25 mM; 10-fold ribozyme excess
Procedure: as §1, §2, §3

[5] = test system: L-target (Seq-ID 1 RNA with L-nucleotides); assay: Cleavage assay: L-target with D-ribozyme; settings: FIG. 2; MgCl2 0-25 mM; 0.2 μM target with 2 μM ribozyme
Procedure: as §1, §2
All synthesis products were labeled with fluorescein at the 5′-end. […]

Row | Substance | cleavage of L-target by L-ribozyme in human serum [1] | cleavage of D-target by L-ribozyme ([2]; FIG. 2, MgCl2 0-25 mM, 0.2 μM target with 2 μM ribozyme) | proportion of cleavage products of the D-target by L-ribozyme as a function of MgCl2 concentration ([2]; FIG. 2C, increasing Mg concentration) | proportion of cleavage products of the D-target by L-ribozyme over time ([2]; FIG. 3, 10 mM MgCl2, times 0 to 256 min, compared with L-target/D-ribozyme) | proportion of cleavage products of L-target with L-ribozyme as a function of MgCl2 concentration ([3]; FIG. 4B, MgCl2 1-25 mM, 10-fold ribozyme excess) | cleavage of L-target by L-ribozyme ([3]; FIGS. 4 to 11, all usual conditions (0.1-25 mM MgCl2, ribozyme excess to deficit)) | turnover rates of L-ribozyme with L-target ([3]; FIGS. 4 to 11, relative to D-ribozyme with D-target) | proportion of cleavage products of D-target with D-ribozyme as a function of MgCl2 concentration [4] | cleavage of L-target by D-ribozyme [5]
1 | 5′-FAM-GGCGACCCUGAUGAGGCCGAAAGGCCGAAACUGU-3′ (all [L-RNA-N], 5' {FAM}, backbone not given here) [L-ribozyme] | functions effectively | a notable reaction certainly occurs | increases with increasing Mg concentration | increases with time | increases with increasing Mg concentration | effectively cuts | at least correspond to those of a D-ribozyme with a D-target | – | –
2 | 5′-FAM-GGCGACCCUGAUGAGGCCGAAAGGCCGAAACUGU-3′ (RNA, 5' {FAM}, backbone not given here) [D-ribozyme] | – | – | – | – | – | – | – | increases with increasing Mg concentration | does not cleave
